Measurements: patent US20060178323A1, “Methods for the treatment of chronic pain and compositions therefor” (priority 2002, published 2006)

Tested on: mechanical hyperalgesia in the Seltzer model of neuropathic pain in the rat
Assay: Seltzer model, established neuropathic hyperalgesia, repeated administration of Compound A
Assay type: in vivo
Description: Two animal models of chronic neuropathic pain may be used that involve some form of peripheral nerve damage. In the Seltzer model (Seltzer et al. (1990) Pain 43: 205-218) rats are anaesthetised and a small incision made mid-way up one thigh (usually the left) to expose the sciatic nerve. The nerve is carefully cleared of surrounding connective tissues at a site near the trochanter just distal to the point at which the posterior biceps semitendinosus nerve branches off the common sciatic nerve. A 7-0 silk suture is inserted into the nerve with a ⅜ curved, reversed-cutting mini-needle, and tightly ligated so that the dorsal ⅓ to ½ of the nerve thickness is held within the ligature. The muscle and skin are closed with sutures and clips and the wound dusted with antibiotic powder. In sham animals the sciatic nerve is exposed but not ligated and the wound closed as in nonsham animals.
In all chronic pain models (inflammatory and neuropathic) mechanical hyperalgesia is assessed by measuring paw withdrawal thresholds of both hindpaws to an increasing pressure stimulus using an Analgesymeter (Ugo-Basile, Milan). Mechanical allodynia is assessed by measuring withdrawal thresholds to non-noxious mechanical stimuli applied with von Frey hairs to the plantar surface of both hindpaws. Thermal hyperalgesia is assessed by measuring withdrawal latencies to a noxious thermal stimulus applied to the underside of each hindpaw. With all models, mechanical hyperalgesia and allodynia and thermal hyperalgesia develop within 1-3 days following surgery and persist for at least 50 days. For the assays described herein, drugs may be applied before and after surgery to assess their effect on the development of hyperalgesia, particularly approximately 14 days following surgery, to determine their ability to reverse established hyperalgesia.
The percentage reversal of hyperalgesia is calculated as follows: [formula] In the experiments disclosed herein, Wistar rats (male) are employed in pain models described above. Rats weigh approximately 120-140 grams at the time of surgery. All surgery is performed under enflurane/O2 inhalation anaesthesia. In all cases the wound is closed after the procedure and the animal allowed to recover. In all pain models employed, after a few days in all but the sham operated animals, a marked mechanical and thermal hyperalgesia and allodynia develops in which there is a lowering of pain threshold and an enhanced reflex withdrawal response of the hind-paw to touch, pressure or thermal stimuli. […] In the majority of animals the toes of the affected hind paw are held together and the foot turned slightly to one side; in some rats the toes are also curled under. The gait of the ligated rats varies, but limping is uncommon. […] The rats tend to be very sensitive to touch and may vocalise. Otherwise the general health an condition of the rats is good.
The effect of Compound A on mechanical hyperalgesia and allodynia is examined in the Seltzer model of neuropathic pain in the rat (Seltzer et al, 1990) as described above. With this model mechanical hyperalgesia and allodynia is induced in the ipsilateral (ligated) hindpaw approximately 1 day following surgery and persists for some weeks. Mechanical hyperalgesia is assessed by measuring paw withdrawal thresholds of both hindpaws to an increasing pressure stimulus using an Analgesymeter (Ugo-Basile, Milan). Mechanical allodynia is assessed by measuring withdrawal thresholds to non-noxious mechanical stimuli applied with von Frey hairs to the plantar surface of both hindpaws.
Inhibition of MMP7 may also reduce established mechanical hyperalgesia. 7 days following ligation ipsilateral paw withdrawal thresholds are reduced to approximately 65 g compared to contralteral readings of approximately 100 g, indicating mechanical hyperalgesia. Compound A (3 and 30 mg/kg) or vehicle (20% cremaphor/water) is then administered orally twice daily for 10 days. […]

CC[C@H](C(=O)NO)[C@H](C(=O)N1CCCC[C@H]1C(=O)NC(C)C)c1ccc(Cl)cc1 [Compound A, (S)-1-[(2S,3S)-2-(4-Chloro-phenyl)-3-hydroxycarbamoyl-pentanoyl]-piperidine-2-carboxylic acid isopropylamide]
ipsilateral paw withdrawal threshold (3 mg/kg orally twice daily for 10 days starting 7 days after ligation, day 3 of study): 67.5 ± 2.5 g
ipsilateral paw withdrawal threshold (3 mg/kg orally twice daily for 10 days starting 7 days after ligation, day 4 of study): 80.0 ± 2.2 g
ipsilateral paw withdrawal threshold (3 mg/kg orally twice daily for 10 days starting 7 days after ligation, day 5 of study): 80.0 ± 3.4 g
ipsilateral paw withdrawal threshold (3 mg/kg orally twice daily for 10 days starting 7 days after ligation, day 6 of study): 80.8 ± 2.4 g
ipsilateral paw withdrawal threshold (3 mg/kg orally twice daily for 10 days starting 7 days after ligation, day 7 of study): 80.8 ± 2.4 g
ipsilateral paw withdrawal threshold (3 mg/kg orally twice daily for 10 days starting 7 days after ligation, day 8 of study): 80.8 ± 2.4 g
ipsilateral paw withdrawal threshold (3 mg/kg orally twice daily for 10 days starting 7 days after ligation, day 9 of study): 75.8 ± 3.5 g
ipsilateral paw withdrawal threshold (3 mg/kg orally twice daily for 10 days starting 7 days after ligation, day 10 of study): 81.7 ± 3.1 g
ipsilateral paw withdrawal threshold (3 mg/kg orally twice daily for 10 days starting 7 days after ligation, day 11 of study): 76.7 ± 2.1 g
ipsilateral paw withdrawal threshold (3 mg/kg orally twice daily for 10 days starting 7 days after ligation, day 12 of study): 78.3 ± 2.5 g
ipsilateral paw withdrawal threshold (3 mg/kg orally twice daily for 10 days starting 7 days after ligation, day 13 of study): 79.2 ± 2.4 g
ipsilateral paw withdrawal threshold (3 mg/kg orally twice daily for 10 days starting 7 days after ligation, day 14 of study): 75.8 ± 3.5 g
ipsilateral paw withdrawal threshold (3 mg/kg orally twice daily for 10 days starting 7 days after ligation, day 15 of study): 76.7 ± 2.5 g
ipsilateral paw withdrawal threshold (3 mg/kg orally twice daily for 10 days starting 7 days after ligation, day 18 of study): 75.8 ± 2.4 g
ipsilateral paw withdrawal threshold (3 mg/kg orally twice daily for 10 days starting 7 days after ligation, day 21 of study): 74.2 ± 1.5 g
ipsilateral paw withdrawal threshold (3 mg/kg orally twice daily for 10 days starting 7 days after ligation, day 23 of study): 70.0 ± 1.8 g
ipsilateral paw withdrawal threshold (3 mg/kg orally twice daily for 10 days starting 7 days after ligation, predose): 65.8 ± 0.8 g
ipsilateral paw withdrawal threshold (30 mg/kg orally twice daily for 10 days starting 7 days after ligation, day 1 of study): 68.3 ± 2.1 g
ipsilateral paw withdrawal threshold (30 mg/kg orally twice daily for 10 days starting 7 days after ligation, day 2 of study): 68.3 ± 1.7 g
ipsilateral paw withdrawal threshold (30 mg/kg orally twice daily for 10 days starting 7 days after ligation, day 3 of study): 71.7 ± 2.1 g
ipsilateral paw withdrawal threshold (30 mg/kg orally twice daily for 10 days starting 7 days after ligation, day 4 of study): 78.3 ± 4.8 g
ipsilateral paw withdrawal threshold (30 mg/kg orally twice daily for 10 days starting 7 days after ligation, day 5 of study): 84.2 ± 2.4 g
ipsilateral paw withdrawal threshold (30 mg/kg orally twice daily for 10 days starting 7 days after ligation, day 6 of study): 84.2 ± 4.4 g
ipsilateral paw withdrawal threshold (30 mg/kg orally twice daily for 10 days starting 7 days after ligation, day 7 of study): 83.3 ± 5.4 g
ipsilateral paw withdrawal threshold (30 mg/kg orally twice daily for 10 days starting 7 days after ligation, day 8 of study): 83.3 ± 2.5 g
ipsilateral paw withdrawal threshold (30 mg/kg orally twice daily for 10 days starting 7 days after ligation, day 9 of study): 79.2 ± 3.0 g
ipsilateral paw withdrawal threshold (30 mg/kg orally twice daily for 10 days starting 7 days after ligation, day 10 of study): 85.0 ± 2.6 g
ipsilateral paw withdrawal threshold (30 mg/kg orally twice daily for 10 days starting 7 days after ligation, day 11 of study): 82.5 ± 3.4 g
ipsilateral paw withdrawal threshold (30 mg/kg orally twice daily for 10 days starting 7 days after ligation, day 12 of study): 80.8 ± 2.4 g
ipsilateral paw withdrawal threshold (30 mg/kg orally twice daily for 10 days starting 7 days after ligation, day 13 of study): 80.0 ± 2.6 g
ipsilateral paw withdrawal threshold (30 mg/kg orally twice daily for 10 days starting 7 days after ligation, day 14 of study): 78.3 ± 1.7 g
ipsilateral paw withdrawal threshold (30 mg/kg orally twice daily for 10 days starting 7 days after ligation, day 15 of study): 78.3 ± 2.5 g
ipsilateral paw withdrawal threshold (30 mg/kg orally twice daily for 10 days starting 7 days after ligation, day 18 of study): 77.5 ± 2.1 g
ipsilateral paw withdrawal threshold (30 mg/kg orally twice daily for 10 days starting 7 days after ligation, day 21 of study): 81.7 ± 2.5 g
ipsilateral paw withdrawal threshold (30 mg/kg orally twice daily for 10 days starting 7 days after ligation, day 23 of study): 77.5 ± 2.1 g
ipsilateral paw withdrawal threshold (30 mg/kg orally twice daily for 10 days starting 7 days after ligation, predose): 66.7 ± 2.1 g
ipsilateral paw withdrawal thresholds compared to vehicle treated animals (after 4 days of drug treatment, 3 and 30 mg/kg orally twice daily): significant increase in ipsilateral paw withdrawal thresholds
persistence of increased thresholds following cessation of compound administration (at the higher dose (30 mg/kg)): up to 2 weeks
